Measurements reported in US20230364121A1 (priority 2020, published 2023).
Several values for one entry are separate records, joined by “and”; a condition that tells them apart may be missing. Identical values can stand only once. Like-named read-outs stand apart in the source and are kept apart here.

How the values were obtained:
[1] = test system: SARS-CoV and SARS-CoV-2 RTCs; assay type: biochemical; settings: equimolar concentrations of GTP
nsp12 NiRAN active-site = nsp12 NiRAN active-site (Severe acute respiratory syndrome coronavirus, UniProt P0C6X7); test: biochemical; assay type: biochemical, SARS-CoV
[2] = target: T1, SARS-Cov-1 nsp12:7L8:8 polymerase complex (Severe acute respiratory syndrome coronavirus, UniProt P0C6X7); test: biochemical; assay type: biochemical
nsp12 = nsp12 (Severe acute respiratory syndrome coronavirus, UniProt P0C6X7); assay type: binding, SARS-CoV
SARS CoV1 nsp14 = SARS CoV1 nsp14 (Severe acute respiratory syndrome coronavirus, UniProt P0C6X7); assay type: biochemical, SARS-CoV-1
nsp12-NiRAN = nsp12-NiRAN (Severe acute respiratory syndrome coronavirus, UniProt P0C6X7); assay type: biochemical, SARS-CoV
[3] = target: Sars-CoV-2 nsp8 labeling by nsp12 (Severe acute respiratory syndrome coronavirus 2, UniProt P0DTD1); test: nsp8-UMPylation competition assay with RTCs; assay type: biochemical; settings: FIG. 13E
[4] = target: T1, SARS-Cov-1 nsp12:7L8:8 polymerase complex; assay type: biochemical
nsp12:7:8 RTC = nsp12:7:8 RTC (Severe acute respiratory syndrome coronavirus, UniProt P0C6X7); assay type: biochemical, SARS-CoV
[5] = test system: SARS-CoV-2 strain BavPatl; test: Antiviral assay in HUH7.5 cells, viral RNA by RT-qPCR; assay type: cell-based; settings: 2 days
MERS-CoV = assay type: cell-based
[6] = test system: human coronavirus alpha-229E; test: microbe, parasite or virus in culture; assay type: cell-based, HCoV-229E
RD cells = settings: human
[7] = Cytotoxicity in mock infected BHK cells (MTT); assay type: cell-based, hamster; settings: hamster, uninfected BHK-21 cells; BHK-21; Table 5
Experimental: To determine the cytotoxicity, cells were seeded at an initial density of 1×10^6 cells/mL in 96 well plates containing Minimum Essential Medium with Earles's salts (MEM-E), L-glutamine, 1 mM sodium pyruvate and 25 mg/L kanamycin, supplemented with 10% fetal bovine serum. Cell cultures were then incubated at 37° C. in a humidified 5% CO2 atmosphere in the absence or presence of serial dilutions of test compounds. Cell viability was determined by the MTT method.
Uninfected cells in the presence of serially diluted compound were used to assess the cytotoxicity of compounds.

[8] = test system: human coronavirus beta-OC43; test: microbe, parasite or virus in culture; assay type: cell-based, HCoV-OC43; settings: unidentified human coronavirus, OC43, Huh-7, read-out: VYR EC90
[9] = test system: HCoV-229E, HCoV-OC43, SARS-CoV-1 and SARS-CoV-2; test: organism not typed; assay type: cell-based, human coronaviruses; settings: Huh-7, read-out: Individual determinations of EC90 values
HCoV-229E [10] = test: Virus-induced CPE assay, HCoV-229E in BHK-21 cells (MTT); assay type: cell-based
Experimental: In an initial screening, BHK-21 cells acutely infected with a seasonal human alpha coronavirus, HCoV-229E, were exposed to serial dilutions of Compound 1A.
BHK-21 cells: Test compounds were dissolved in DMSO at 100 mM and then diluted in Minimum Essential Medium with Earle's salts (MEM-E) containing 1 mM sodium pyruvate and 25 μg/mL kanamycin, supplemented with 10% FBS (growth medium) to final concentrations of 100, 20, 4 and 0.8 μM (two […] replica plates each). After BHK-21 cells were grown to confluency in 96-well plates, growth medium was replaced with fresh maintenance medium (growth medium with 1% inactivated FBS in place of 10% FBS) containing serially diluted test compound and HCoV-229E at a multiplicity of infection (MOI) of 0.01. Uninfected cells in the presence of serially diluted compound were used to assess the cytotoxicity of compounds. After a 3-day incubation at 37° C. in a humidified 5% CO2 atmosphere, cell viability was determined by the MTT method (Pauwels, R et al. J. Virol. Methods 20(4):309-321 (1988)).

Huh7 cells = settings: human
SARS-CoV (Urbani) = assay type: cell-based; settings: SARS-CoV-1, Huh-7, Table 5
HCoV-OC43 = test: microbe, parasite or virus in culture; assay type: cell-based; settings: Betacoronavirus 1, OC43, RD
SARS-CoV-2 (WA1) = test: microbe, parasite or virus in culture; assay type: cell-based
HCoV-229E [11] = settings: MRC-5 cells; cited from earlier work
in vitro = settings: human
Salmonella/microsome = settings: acknowledged by Merck; cited from earlier work
dNHBE (HAE) cells = settings: human
[12] = read-out: Neutral Red Assay EC50
[13] = read-out: Virus Yield Reduction Assay EC90
[14] = Severe acute respiratory syndrome coronavirus 2, HAE, read-out: EC90, single replicates
[15] = Severe acute respiratory syndrome coronavirus 2, HAE, read-out: Virus Yield Reduction Assay EC90
[16] = read-out: EC90, single replicates
[17] = Severe acute respiratory syndrome coronavirus 2, 48 h
[18] = Severe acute respiratory syndrome coronavirus 2, Huh7.5, 48 h

SMILES: C[C@@]1(F)[C@H](O)[C@@H](COP(=O)(O)OP(=O)(O)OP(=O)(O)O)O[C@H]1n1cnc2c(=O)[nH]c(N)nc21 [AT-9010, 2′-fluoro-2′-C-methylguanosine-5′-triphosphate]
- discrimination compared with natural GTP [1]: ~5 fold
- IC50 (nsp12 NiRAN active-site; IC50 of nsp8 labeling against GTP (FIG. 13C)): 2.7 ± 0.3 µM
- IC50 (nsp12 NiRAN active-site; IC50 of nsp8 labeling against UTP (FIG. 13C)): 1.9 µM
- IC50 (nsp12 NiRAN active-site; IC50 of nsp8 labeling, competition with UTP (FIG. 13A)): 0.87 µM
- EC50 [2]: 1.5 to 2 µM
- inhibition of de novo synthesis on poly(A) template [2]: almost complete inhibition
- thermal stability of nsp12 (nsp12): provides more thermodynamic stability than any other native nucleotide
- inhibition of N7-MTase activity (SARS CoV1 nsp14): no inhibition
- fold preference AT9010: GTP (nsp12-NiRAN): ~1.7 fold
- fold preference AT9010: UTP (nsp12-NiRAN): ~3.2 fold
- fold more efficient at blocking nsp8 labeling than STP [3]: 4-5 fold
- Discrimination of ATEA-GTP, average [4]: 27.0+/−7.9 fold and 21.0+/−1.5 fold and 27.0 fold and 21.0 fold
- discrimination against GTP [4]: 22 fold
- inhibition of primer elongation [4]: no inhibition of primer elongation
- inhibition of RNA synthesis from poly(C) template (nsp12:7:8 RTC): significantly reduces activity
- inhibition of synthesis of poly(U)n RNA from poly(A)27 template (nsp12:7:8 RTC): inhibits synthesis of poly(U)n RNA equally as well as STP

SMILES: CNc1nc(N)nc2c1ncn2[C@@H]1O[C@H](COP(=O)(N[C@@H](C)C(=O)OC(C)C)Oc2ccccc2)[C@@H](O)[C@@]1(C)F (some centres unmarked) [Compound 1A]
- EC90 [5]: 3.39 µM
- EC50 ([5]; listed as AT-511): 1.1 µM and 1.13 µM
- CC50 (HUH 7.5 cells): > 20 µM

SMILES: CNc1nc(N)nc2c1ncn2[C@@H]1O[C@H](CO[P@@](=O)(N[C@@H](C)C(=O)OC(C)C)Oc2ccccc2)[C@@H](O)[C@@]1(C)F [Compound 1A]
- difference of activity between MERS-CoV and other CoVs (MERS-CoV): 30 fold
- Selectivity Index (CC50/EC90) ([6]; Huh-7, Table 5): >75
- EC50 [6, 12]: 1.6 µM
- EC90 ([6]; unidentified human coronavirus, Huh-7, 72 h, read-out: Virus Yield Reduction Assay EC90): 1 µM
- EC50 ([6]; unidentified human coronavirus, Huh-7, 120 h, read-out: Neutral Red Assay EC50): 1.7 µM
- EC50 ([6]; unidentified human coronavirus, Huh-7, read-out: Neutral Red EC50): 1 µM
- EC90 ([6]; unidentified human coronavirus, Huh-7, read-out: VYR EC90): 0.71 µM
- EC50 ([6]; unidentified human coronavirus, Huh-7, read-out: Visual EC50, Huh7 cells, visual CPE): 1 µM
- CC50 (RD cells): > 86 µM
- CC50 at 3 days [7]: > 100 µM
- EC90 [8]: 0.29 µM
- EC90 [9]: 0.34 to 1.2 µM
- EC50 (HCoV-229E [10]; BHK-21, the 2 experiments averaged in Table 5, read-out: EC50, single experiments): 2 µM
- EC50 (HCoV-229E [10]; Human coronavirus 229E, BHK-21, 72 h, BHK-21, dye staining, 3-day incubation, read-out: EC50): 1.8 µM
- EC50 (HCoV-229E [10]; Human coronavirus 229E, BHK-21, BHK-21, the 2 experiments averaged in Table 5, read-out: EC50, single experiments): 1.6 µM
- Neutral Red Assay CC50 (Huh7 cells): >50^ μg/mL
- Selectivity Index (CC50/EC90) (SARS-CoV (Urbani)): >250
- EC90 (SARS-CoV (Urbani); [13]): 0.34 µM
- EC50 (HCoV-OC43; [12]): 2.8 µM
- EC90 (HCoV-OC43; [13]): 2.2 µM
- replicate EC90 determinations (SARS-CoV-2 (WA1)): ^2Value represents the mean of two replicate EC90 determinations, 0.33 and 0.41 μg/mL
- EC90 (SARS-CoV-2 (WA1); Severe acute respiratory syndrome coronavirus 2, HAE, read-out: Average EC90 from two separate HAE assays): 0.5 µM
- EC90 (SARS-CoV-2 (WA1); [14]): 0.57 µM
- EC90 (SARS-CoV-2 (WA1); [15]): 0.37 µg/mL and 640 nM
- EC90 (SARS-CoV-2 (WA1); Severe acute respiratory syndrome coronavirus 2, HAE, read-out: replicate EC90 determinations): 0.33 µg/mL
- Selectivity Index (SARS-CoV-2 (WA1); dNHBE, virus yield reduction assay): >135
- EC90 (SARS-CoV-2 (WA1); [16]): 0.7 µM and 0.52 µM and 0.42 µM
- EC90 (SARS-CoV-2 (WA1); [13]): 0.47 µM
- EC50 (HCoV-229E [11]): > 100 µM

SMILES: CC(C)C[C@H](NC(=O)OCc1ccccc1)C(=O)N[C@@H](C[C@@H]1CCNC1=O)C(O)S(=O)(=O)O (some centres unmarked) [GC376]
- EC90 [5, 17]: < 0.15 µM
- EC50 [5, 18]: < 0.15 µM
- CC50 (in vitro): > 20 µM

SMILES: CC(C)C(=O)OC[C@H]1O[C@@H](n2ccc(NO)nc2=O)[C@H](O)[C@@H]1O [Molnupiravir, molnupiravir]
- AMES test (Salmonella/microsome): positive
- EC50 [5]: 1.71 µM
- EC90 [5, 17]: 4.21 µM
- EC50 [5, 18]: 1.7 µM
- CC50 (in vitro): > 20 µM

SMILES: O=c1nc(NO)ccn1[C@@H]1O[C@H](CO)[C@@H](O)[C@H]1O [N4-hydroxycytidine, reference compound]
- CC50 (dNHBE (HAE) cells): > 19 µM
- Selectivity Index (CC50/EC90) (SARS-CoV-2 (WA1)): >5.1
- potency relative to Compound 1A in the same experiment (times less) (SARS-CoV-2 (WA1)): 8 times
- EC90 (SARS-CoV-2 (WA1); [14]): 4.7 µM
- EC90 (SARS-CoV-2 (WA1); [15]): 3.9 µM
- EC90 (SARS-CoV-2 (WA1); [16]): 3.1 µM
